Key:
[1] = test system: mice; assay: anti-AAV8 IgM and IgG titers, 1-week vs 2-week dasatinib treatment in mice; assay type: in vivo
Description: (§1) FIG. 7: In vivo study to assess the impact of prolonging the dasatinib treatment. All mouse groups, except Group 1, were immunized on day 1 with an i.v. injection of AAV8-hSeap (1e12 vg/kg). Four groups received an i.v. injection of AAV8-FactorIX (3e13 vg/kg) on day 43. Concomitantly to the first AAV administration, Groups 3 and 4 were treated with dasatinib for either 1 or 2 weeks, respectively. Dasatinib was administered at the dose of 50 mg/kg per oral gavage, twice per day and starting 1 hr before the first AAV treatment.
FIGS. 8A-8B: Prolongation of dasatinib treatment from 1 week to 2 weeks improves the inhibition of IgM formation to AAV8. In the experiment described in FIG. 8A and FIG. 8B anti-AAV8 IgM titers (median+/−SD) were measured in each mouse group from day 0 (before AAV8-hSeap administration) to day 64, as described for FIGS. 2A-2C. Each circle represents an individual IgM titer.
FIGS. 9A-9B: Prolongation of dasatinib treatment from 1 week to 2 weeks improves the inhibition of IgG formation to AAV8. In the experiment described in FIG. 9A and FIG. 9B, anti-AAV8 IgG titers (median+/−SD) were measured in each mouse group from day 0 (before AAV8-hSeap administration) to day 64, as described for FIGS. 3A-3C. Each circle represents an individual IgG titer.
In the experiment described in Example 1, despite the strong inhibition of anti-AAV antibody formation observed in most of the mice, 4 out of 10 dasatinib-treated animals started to develop anti-AAV8 IgG before re-dosing (FIG. 3C, days 15-21). The presence of residual AAV8 particles in the circulation and in the tissues after the cessation of the dasatinib treatment might lead to this antibody formation. […] To this purpose, the same protocol was applied as in Example 1, but using either a 1-week or a 2-week dasatinib treatment. In addition, re-dosing was performed at a later time point (day 43 instead of day 22) to be able to observe potential antibody formation after the cessation of dasatinib treatment. This protocol is depicted in FIG. 7.
Circulating IgM and IgG directed against the AAV8 capsid were titrated in the serum samples (FIGS. 8A-8B and 9A-9B). The peaks of anti-AAV8 IgM were observed one week after first rAAV8 dosing, on day 8 for the immunized control Group 2 and on day 50 for the non-immunized control Group 1 (10/10 mice above the threshold) (FIGS. 8A-8B). […] Inhibition of IgM production was stronger in Group 4, treated with dasatinib for 2 weeks.

[2] = test system: human whole blood; assay: AAV8-dependent cytokine release in human whole blood from four healthy donors with IVIG; assay type: cell-based
Description: FIGS. 6A-6C: Dasatinib inhibits AA V8-dependent cytokine release in human whole blood. Fresh whole blood from 4 healthy donors was incubated with either PBS or AAV8-hSEAP (5e11 vg/mL) with IVIG (PRIVIGEN, 1/100) for 24 hrs. Dasatinib was added at the concentration of 50 nM 1 hr before addition of AAV8. In some of the culture wells, a second dose of dasatinib was added 9 hrs after AAV8 treatment (dasa 50 nM 2x). After 24 hrs, the plasma was collected and cytokines measured using Quanterix kits. Depicted are the cytokine fold increases over PBS for IFN-γ and TNF-α (FIG. 6A), IL-6 and IL-1x (FIG. 6B), and IL-2 and IL-1β (FIG. 6C), with the percentages of inhibition in the presence of dasatinib (means +/−SEM).
To study in more detail the effects of dasatinib on AAV-dependent cytokine release, another whole blood assay was performed. Whole blood from four healthy donors was incubated with AAV8-hSEAP (5e11 vg/ml) for 24 hrs. Intravenous Immunoglobulin (IVIG, Privigen) which contains anti-AAV antibodies was added to the blood samples. Dasatinib was added at 50 nM 1 hr before the AAV treatment, PBS was used as a negative control. As the half-life of dasatinib is very short (Lindauer M et al, Recent Results Cancer Res. 2010;184:83-102), a second dasatinib addition was performed 9 hrs after the AAV treatment. After 24 hrs, plasma supernatants were collected and cytokines measured using Quanterix kits. […] Inhibition of AAV-mediated cytokine release likely contributes to the effect of dasatinib on antibody formation.

[3] = test system: mice; assay: hFIX transgene expression after re-dosing, 1-week vs 2-week dasatinib treatment; assay type: in vivo
Description: as §1
FIG. 10: Prolongation of dasatinib treatment upon first AAV8 dosing improves transgene expression after readministration. In the experiment described in FIG. 10, the levels of hFIX expression (ng/mL, median+/−SD) were measured for each group, starting on day 42 (one day before administration of AAV8-hFIX) and up to day 64.
In the experiment described in Example 1, despite the strong inhibition of anti-AAV antibody formation observed in most of the mice, 4 out of 10 dasatinib-treated animals started to develop anti-AAV8 IgG before re-dosing (FIG. 3C, days 15-21). […]
The inhibition of antibody formation to AAV8 correlated with the improvement of hFIX transgene expression after re-dosing, showing efficient transduction by the second AAV8(FIG. 10). Expression of hFIX was inversely correlated with the IgG and IgM titers measured on day 42 before re-dosing.

[4] = Group 4, dasatinib for 2 weeks, day 42
[5] = dasatinib 50 nM, 24 hrs, AAV8-hSEAP 5e11 vg/ml with IVIG

**Q.** Which results are given for Cc1nc(Nc2ncc(C(=O)Nc3c(C)cccc3Cl)s2)cc(N2CCN(CCO)CC2)n1 [dasatinib, N-(2-chloro-6-methylphenyl)-2-[[6-[4-(2-hydroxyethyl)-1-piperazinyl]-2-methyl-4-pyrimidinyl]amino]-5-thiazole carboxamide monohydrate]?
**A.** anti-AAV8 IgM titers until administration of the second rAAV8 ([1]; Group 3, dasatinib 50 mg/kg oral twice per day for 1 week): remained low to negative; mice with negative anti-AAV8 IgG titers ([1]; Group 3, dasatinib for 1 week, day 42): 3/15; mice with positive IgM titers to AAV8 ([1]; Group 3, dasatinib for 1 week, day 42 before AAV8 re-dosing): Four out of 15; inhibition of IgM production compared with 1-week treatment ([1]; Group 4, dasatinib for 2 weeks): stronger; mice with IgG titers below the positivity threshold [1, 4]: 5/15; mice with positive IgM titer [1, 4]: one; median anti-AAV8 IgG titer ([1]; Group 4, dasatinib for 2 weeks, day 42, compared with 1-week Group 3): much lower than in Group 3; anti-AAV8 IgG titers after rAAV8 re-administration ([1]; day 64, 3 weeks after rAAV8 re-administration): comparable in all mouse groups; inhibition of cytokine production with second dasatinib addition versus single addition ([2]; dasatinib 50 nM added both 1 hr before and 9 hrs after AAV treatment): more pronounced; production of IFN-Y [2, 5]: inhibited; production of IL-1β [2, 5]: inhibited; production of IL-2 [2, 5]: inhibited; production of IL-6 [2, 5]: inhibited; production of IL-la [2, 5]: inhibited; production of TNF-α [2, 5]: inhibited; expression of hFIX, 2-week treatment compared with 1-week treatment ([3]; Group 4 (2 weeks) vs Group 3 (1 week), after AAV8-FactorIX 3e13 vg/kg on day 43): higher; hFIX levels in mice that remained IgG-negative on day 42 ([3]; day 64, dasatinib-treated mice): in the range of those measured in the non-immunized control Group 1

Source: US20260000670A1 (priority 2022, published 2026)
